Series [1] concerns A549. Nature of the series: Cytotoxicity against human A549 cells assessed as reduction in cell viability at > antiviral IC50 by MTT assay. Type of series: cell-based.
In series [2] the test system is A549. Nature of the series: Cytotoxicity against human A549 cells assessed as reduction in cell viability at <= 1 uM by MTT assay. The format is cell-based.
The test system of series [3] is Zika virus. Briefly: Antiviral activity against Zika virus infected in human A549 cells assessed as reduction in viral titer incubated for 48 hrs by plaque assay. Type of series: functional, organism-based. The following applies: A549, 48 h.
Series [4] deals with Zika virus. Nature of the series: Potency index, ratio of ASN 07115873 to compound IC50 for Antiviral activity against Zika virus infected in human A549 cells. Type of series: functional.

For orientation: IC50 means the concentration at which inhibition is half-maximal.

For the compound `C=CCSc1nsc(NC(=O)Nc2ccc(Cl)cc2)n1`, the Activity entry in series [1] was “>= 50%”; in series [2] it was “Non-Toxic”. Further, the IC50 in series [3] is 0.191 nM.

As to `C#CCSc1nsc(NC(=O)Nc2ccc(Cl)c(C(F)(F)F)c2)n1`, the figures for the Activity entry in series [1] and in series [2] were “>= 50%” and “Non-Toxic”, respectively. For the same compound, the IC50 in series [3] was determined as 0.962 nM.

As to `C=CCSc1nnc(NC(=S)Nc2ccc(Br)cc2)s1`, the Activity result is on record as “>= 50%” in series [1] and “Non-Toxic” in series [2]. Besides, in series [3], the IC50 came to 0.147 nM.

Take `C=CCSc1nsc(NC(=S)Nc2ccc(Cl)c(C(F)(F)F)c2)n1`: the Activity result in series [1] is on record as “>= 50%”; in series [2] it was “Non-Toxic”. The IC50 in series [3] came to 4.9 nM.

For `C=CCSc1nsc(NC(=S)Nc2ccc(Cl)cc2)n1`, the Activity result in series [1] was “>= 50%”; in series [2] it was “Non-Toxic”. Also, the IC50 in series [3] is 493 nM.

For `C#CCSc1nsc(NC(=O)Nc2ccc(I)cc2)n1`, the results for the Activity entry in series [1] and in series [2] were “>= 50%” and “Non-Toxic”, respectively. Besides, the IC50 in series [3] was determined as 0.809 nM.

Turning to `C=CCSc1nc(NC(=S)Nc2ccc(Cl)cc2)ns1`, the results for the Activity result in series [1] and in series [2] were “>= 50%” and “Non-Toxic”, respectively. Further, the IC50 in series [3] was 2600 nM.

`C=CCSc1nsc(NC(=O)Nc2ccc(I)cc2)n1`: the Activity result in series [1] is recorded as “>= 50%”; in series [2] it was “Non-Toxic”. Besides, in series [3], the IC50 was 0.414 nM.

With `CCCSc1nnc(NC(=O)Nc2ccc(Cl)c(C(F)(F)F)c2)s1`, the half-inhibitory concentration (IC50) in series [3] was 0.149 nM.

Consider `C=CCSc1nnc(NC(=O)Nc2ccc(Br)cc2C(F)(F)F)s1`, for which the IC50 in series [3] stood at 9100 nM.

On to `C=CCSc1nnc(NC(=O)Nc2ccc(Br)cc2)s1`, for which the Activity result in series [1] is “>= 50%”; in series [2], “Non-Toxic”. For the same compound, the IC50 in series [3] is 0.144 nM.

Take `C=CCSc1nc(NC(=S)Nc2ccc(Br)cc2)ns1`: the Activity entry is “>= 50%” in series [1] and “Non-Toxic” in series [2]. Besides, the IC50 in series [3] was 4100 nM.

Regarding `C=CCSc1nc(NC(=O)Nc2ccc(Cl)c(C(F)(F)F)c2)ns1`, the figures for the Activity entry in series [1] and in series [2] were “>= 50%” and “Non-Toxic”, respectively. Further, the concentration for half-maximal inhibition (IC50) in series [3] was 1000 nM.

`C=CCNc1nc(NC(=O)Nc2ccc(Cl)c(C(F)(F)F)c2)ns1`: the Activity result was “>= 50%” in series [1] and “Non-Toxic” in series [2]. Besides, the IC50 in series [3] amounted to 0.114 nM.

On to `C=CCSc1nsc(NC(=S)Nc2ccc(I)cc2)n1`, for which the Activity entry in series [1] is on record as “>= 50%”; in series [2], “Non-Toxic”. Also, the IC50 in series [3] was found to be 2600 nM.

On to `C#CCSc1nsc(NC(=S)Nc2ccc(Cl)c(C(F)(F)F)c2)n1`, for which the Activity result in series [1] is “>= 50%”; in series [2], “Non-Toxic”. Moreover, in series [3], the IC50 worked out at 57.4 nM.

On to `C=CCNc1nc(NC(=O)Nc2ccc(I)cc2)ns1`, for which the Activity entry was “>= 50%” in series [1] and “Non-Toxic” in series [2]. Besides, the IC50 in series [3] stood at 0.1 nM.

Take `C=CCSc1nc(NC(=O)Nc2ccc(Br)cc2)ns1`: the Activity entry was “>= 50%” in series [1] and “Non-Toxic” in series [2]. The concentration for half-maximal inhibition (IC50) in series [3] was 1300 nM.

Take `O=C(Nc1ccc(Cl)c(C(F)(F)F)c1)Nc1nnc(S)s1`: the IC50 in series [3] worked out at 0.982 nM.

With `C=CCSc1nsc(NC(=O)Nc2ccc(Br)cc2)n1`, the Activity result is “>= 50%” in series [1] and “Non-Toxic” in series [2]. Moreover, in series [3], the IC50 amounted to 0.329 nM.

On to `C=CCSc1nsc(NC(=S)Nc2ccc(Br)cc2)n1`, for which the Activity entry in series [1] is listed as “>= 50%”; in series [2], “Non-Toxic”. Also, in series [3], the IC50 was 2100 nM.

Turning to `C=CCNc1nc(NC(=O)Nc2ccc(Cl)cc2)ns1`, the “Ratio IC50” value in series [4] worked out at 2.2. The Activity entry is “>= 50%” in series [1] and “Non-Toxic” in series [2]. For the same compound, the 50% inhibitory concentration (IC50) in series [3] was determined as 0.0851 nM.

In the case of `C#CCSc1nsc(NC(=O)Nc2ccc(Cl)cc2)n1`, the Activity result is reported as “>= 50%” in series [1] and “Non-Toxic” in series [2]. Also, the IC50 in series [3] was found to be 1.4 nM.

`C=CCSc1nnc(NC(=S)Nc2ccc(I)cc2)s1`: the Activity entry in series [1] was “>= 50%”; in series [2] it was “Non-Toxic”. For the same compound, in series [3], the IC50 is 0.156 nM.

Consider `C=CCSc1nsc(NC(=O)Nc2ccc(Cl)c(C(F)(F)F)c2)n1`, for which the values for the Activity entry in series [1] and in series [2] were “>= 50%” and “Non-Toxic”, respectively. Further, the IC50 in series [3] stood at 0.423 nM.

Consider `C=CCSc1nnc(NC(=S)Nc2ccc(Br)cc2C(F)(F)F)s1`, for which the IC50 in series [3] was 46.6 nM.

Turning to `C=CCSc1nc(NC(=S)Nc2ccc(Br)cc2C(F)(F)F)ns1`, the IC50 in series [3] came out at 2900 nM.

Take `C=CCSc1nnc(NC(=O)Nc2ccc(I)cc2)s1`: the values for the Activity entry in series [1] and in series [2] were “>= 50%” and “Non-Toxic”, respectively. Besides, the IC50 in series [3] amounted to 0.179 nM.

For `C=CCSc1nnc(NC(=O)Nc2ccc(Cl)cc2)s1`, the results for the Activity entry in series [1] and in series [2] were “>= 50%” and “Non-Toxic”, respectively. Also, in series [3], the IC50 worked out at 0.191 nM.

On to `C#CCSc1nsc(NC(=O)Nc2ccc(Br)cc2)n1`, for which the Activity entry in series [1] was “>= 50%”; in series [2] it was “Non-Toxic”. Moreover, in series [3], the IC50 was 0.665 nM.

For `C=CCNc1nc(NC(=O)Nc2ccc(Br)cc2)ns1`, the Activity result in series [1] is given as “>= 50%”; in series [2], “Non-Toxic”. For the same compound, the IC50 in series [3] came to 0.0977 nM.

Take `C=CCSc1nnc(NC(=S)Nc2ccc(Cl)c(C(F)(F)F)c2)s1`: the Activity entry in series [1] is “>= 50%”; in series [2], “Non-Toxic”. Besides, in series [3], the IC50 was 0.0977 nM.

On to `C=CCSc1nc(NC(=S)Nc2ccc(I)cc2)ns1`, for which the Activity result is given as “>= 50%” in series [1] and “Non-Toxic” in series [2]. Moreover, the IC50 in series [3] stood at 2700 nM.

Consider `C#CCSc1nsc(NC(=S)Nc2ccc(Br)cc2)n1`, for which the Activity entry is reported as “>= 50%” in series [1] and “Non-Toxic” in series [2]. The IC50 in series [3] is 706 nM.

Consider `C=CCSc1nc(NC(=S)Nc2ccc(Cl)c(C(F)(F)F)c2)ns1`, for which the figures for the Activity result in series [1] and in series [2] were “>= 50%” and “Non-Toxic”, respectively. The IC50 in series [3] turned out to be 233 nM.

Regarding `C=CCSc1nnc(NC(=O)Nc2ccc(Cl)c(C(F)(F)F)c2)s1`, the figures for the Activity result in series [1] and in series [2] were “>= 50%” and “Non-Toxic”, respectively. Moreover, the IC50 in series [3] turned out to be 0.111 nM.

With `C=CCSc1nc(NC(=O)Nc2ccc(I)cc2)ns1`, the Activity entry is given as “>= 50%” in series [1] and “Non-Toxic” in series [2]. Also, the IC50 in series [3] worked out at 1200 nM.

These data come from ChEMBL document CHEMBL4396960, “Optimization of 1,3-disubstituted urea-based inhibitors of Zika virus infection” (Bioorg Med Chem Lett, 2019).
